Experimental data published in article PMC5717258, “Bioaccumulation of pharmaceuticals and personal care product chemicals in fish exposed to wastewater effluent in an urban wetland” (Scientific Reports, 2017).
Like-named read-outs stand apart in the source and are kept apart here.

Legend:
[1] = cited from earlier work
in vivo = details: for concentration at 21 days: goldfish (Carassius auratus)
Source text: Cages were visited weekly, and fish (13/cage) were fed during the visits (20 g/cage). All animal experiments were in accordance with CCAC guidance and approved by the GLLFAS-WSTD Animal Care Committee (Government of Canada). Further details on the caging and preparation of the fish and animal care protocols are provided in Simmons et al.[32]. […] A fourth site, Jordan Harbour (JH), a widening of 20 Mile Creek adjacent to Lake Ontario near Jordan ON, served as a reference site. Mass and fork length were measured and recorded. Plasma collection and storage is described in the SI. Plasma of caged goldfish was divided for proteome, metabolome and PPCP analysis. Due to limited volumes, pooled samples of plasma from 25 individual fish (50 µL/individual) was pooled to yield one sample from at each location for PPCP analysis.
(§1) A total of 20 fish plasma samples from the pooled caged fish (7) and the wild fish (13) along with 12 water samples were selected for analysis. […] A full list of analytes is provided in Supplementary Information. Mass labelled^13C-, or deuterated surrogate internal standards were used for quantification of all analytes via the isotope dilution/surrogate standard quantitation method. Prior to extraction and/or clean-up procedures, aqueous samples were adjusted to pH 2.0, spiked with extraction surrogate standards, then adjusted to pH 4 using tetrasodium ethylenediamine-tetraacetate dihydrate. Plasma samples (2.3–2.5 g) were spiked with extraction surrogate standards, sonicated with 20 mL acetonitrile, then diluted with ultra-pure water to 200 mL. The extracts were cleaned up by solid phase extraction using Oasis HLB cartridges (Waters Ltd. Mississauga ON), filtered, and analyzed by liquid chromatography-electrospray ionization-tandem mass spectrometry (LC/ESI-MS/MS) in positive or negative ionization mode. The analysis of the complete list of analytes (SI Table S1) required a total of five instrumental runs.
(§2) Quality assurance steps included analysis of lab blanks for water and plasma along with matrix recovery spikes. […] Detection limits (DLs) were defined as lowest calibration level adjusted to the maximal sample size or 3 times the signal of the noise in the target channel converted to an equivalent sample, whichever was greater. […] Where analytes were detected in two or more samples of the same species or series of water samples, non-detect values were converted to ½ the DL value for reporting purposes.

[2] = Procedure: Plasma from 9 individual male fish (500 µL/individual) was pooled to yield 3 samples for PPCP analysis. […] Plasma from 6 individual carp (2.3–3.5 g) from each location was selected for PPCP analysis. […] Plasma samples were frozen (−80 °C) until analysis.
as §1, §2

[3] = parameters: method as in US EPA Chemistry Dashboard; details: ref US EPA Chemistry Dashboard; cited from earlier work
[4] = Plasma bioaccumulation factor (BAFP), goldfish; format: in vivo, goldfish (Carassius auratus); details: for BAFP, CPM2 goldfish caged: water sample of August 2012
Procedure: Bioaccumulation factor (BAFP) was calculated as concentration in fish plasma (ng/g × 1000) divided by concentration in water (ng/L). Two widely used modeling approaches for predicting organic contaminant bioaccumulation were assessed: the BCF-BAF model for whole body BAFs[53] and the fish-plasma concentration calculation of Huggett et al.[35] modified by Berninger et al.[54]. The latter involves estimating an octanol-water partition coefficient (Kow) adjusted for fraction ionized (log D), using the pKa value to adjust log Kow[54] taking into account the pH of CPM waters. Further information on the calculation of log D, blood-water partitioning (PBW), and plasma concentrations (FPC) is given in the SI.

[5] = cited from earlier work; remark: listed apart in the source
[6] = Table S7, ref Meador et al. (2016)
[7] = male, goldfish (Carassius auratus), in vivo
[8] = CPM1, 07-2014, pooled plasma, wet weight
[9] = CPM2, 07-2014, pooled plasma, wet weight
[10] = CPM3, 07-2014, pooled plasma, wet weight
[11] = Jordan Harbour reference site, 07-2014, pooled plasma, wet weight
[12] = wild goldfish sample 01, 2012, wet weight
[13] = wild goldfish sample 02, 2012, wet weight
[14] = wild goldfish sample 03, 2012, wet weight

COc1cc(NS(=O)(=O)c2ccc(N)cc2)nc(OC)n1 [Sulfadim ethoxine, Sulfadimethoxine]
Salmon (whole body) concentration [1, 6]: 0.34 to 17 ng/g

Nc1ccc(S(=O)(=O)Nc2ncccn2)cc1 [Sulfadiazine]
Salmon (whole body) concentration [1, 6]: 0.88 ng/g

C[C@H](O)C(=O)Nc1c(I)c(C(=O)NC(CO)CO)c(I)c(C(=O)NC(CO)CO)c1I [Iopamidol]
concentration at 21 days (in vivo; in vivo, caged goldfish plasma, range of concentrations): 7.85 to 8.35 ng/g | concentration at 21 days (in vivo; in vivo, plasma concentration, CPM1 caged): 20.9 ng/g | concentration at 21 days (in vivo; in vivo, plasma concentration, CPM2 caged): 17.6 ng/g | concentration at 21 days (in vivo; in vivo, plasma concentration, CPM3 caged): 8.2 ng/g | concentration at 21 days (in vivo; in vivo, plasma concentration, JH caged): < 16 ng/g | plasma concentration, carp, this study (mean) ([2]; in vivo): < mdl | plasma concentration, CPM wild-01 [2, 7]: 7.85 ng/g | plasma concentration, CPM wild-02 [2, 7]: 8.15 ng/g | plasma concentration, CPM wild-03 [2, 7]: 8.35 ng/g | plasma concentration, goldfish, this study (mean) [2, 7]: 8.12 ng/g wet weight or ng/mL for plasma | wild goldfish plasma, range of concentrations [2, 7]: 8.2 to 20.9 ng/g | log Kow [3]: -2.21 | BAFP, CPM1 goldfish caged [4]: 75 L/kg | BAFP, CPM2 goldfish caged [4]: 50 L/kg | BAFP, CPM3 goldfish caged ([4]; CPM3): 13 L/kg | BAFP at CPM3, wild goldfish, average ([4]; conc in fish plasma/conc in water): 38 L/kg | BAFP at CPM3, wild goldfish, range ([4]; range based on range of plasma concentrations): 37 to 40 L/kg

Anhydrochlortetracycline
plasma concentration, CPM1 caged (in vivo; [8]): 2.97 ng/g | plasma concentration, CPM2 caged (in vivo; [9]): < 2.92 ng/g | plasma concentration, CPM3 caged (in vivo; [10]): < 3.07 ng/g | plasma concentration, JH caged (in vivo; [11]): < 3.0 ng/g | plasma concentration, CPM wild-01 [2, 12]: < 2.94 ng/g | plasma concentration, CPM wild-02 [2, 13]: < 3.18 ng/g | plasma concentration, CPM wild-03 [2, 14]: < 3.13 ng/g

COc1ccc(CCNCCCC(C#N)(c2ccc(OC)c(OC)c2)C(C)C)cc1OC (stereo not shown) [Norverapam il, Norverapamil]
Sculpin (whole body) concentration [5, 6]: 0.20 to 0.30 ng/g | Salmon (whole body) concentration [1, 6]: 0.12 to 0.47 ng/g

CC[C@H]1OC(=O)[C@H](C)[C@@H](O[C@H]2C[C@@](C)(OC)[C@@H](O)[C@H](C)O2)[C@H](C)[C@@H](O[C@@H]2O[C@H](C)C[C@H](N(C)C)[C@H]2O)[C@](C)(O)C[C@@H](C)CN(C)[C@H](C)[C@@H](O)[C@]1(C)O [Azithrom yc in, Azithromycin]
Salmon (whole body) concentration [1, 6]: 1.7 ng/g

NC(=O)N1c2ccccc2C=Cc2ccccc21 [carbamazepine]
detection in fish plasma (in vivo; in vivo): not detected

COc1cc(C)c(Cc2cnc(N)nc2N)cc1OC [Orm etoprim, Ormetoprim]
Salmon (whole body) concentration [1, 6]: 44 to 1600 ng/g

CN(C)CCOC(c1ccccc1)c1ccccc1 [Diphenhydramine]
BAFP, CPM1 goldfish caged [4]: 7 L/kg | BAFP, CPM2 goldfish caged [4]: 5 L/kg

CN(C)CCC=C1c2ccccc2CC(O)c2ccccc21 (stereo not shown) [10-hydroxy-amitriptyline]
plasma concentration, CPM1 caged (in vivo; [8]): 0.033 ng/g | plasma concentration, CPM2 caged (in vivo; [9]): 0.039 ng/g | plasma concentration, CPM3 caged (in vivo; [10]): 0.015 ng/g | plasma concentration, JH caged (in vivo; [11]): < 0.03 ng/g | Sculpin (whole body) concentration ([5]; in vivo): 0.13 ng/g | Salmon (whole body) concentration ([1]; in vivo): 0.09 ng/g | plasma concentration, CPM-C 01 ([2]; Cootes carp 01, 2011, male, wet weight): 0.032 ng/g | plasma concentration, CPM-C 2 ([2]; Cootes carp 2, Sep 27, 2011, male, wet weight): 0.053 ng/g | plasma concentration, CPM-C 10 ([2]; Cootes carp 10, Sep 28, 2011, female, wet weight): 0.024 ng/g | plasma concentration, CPM-C 13 ([2]; Cootes carp 13, Sep 28, 2011, female, wet weight): 0.047 ng/g | plasma concentration, CPM-C 20 ([2]; Cootes carp 20, 2011, male, wet weight): 0.016 ng/g | plasma concentration, CPM-C 36 ([2]; Cootes carp 36, Oct 3, 2011, female, wet weight): 0.025 ng/g | Carp plasma concentration, this study (range) ([2]; Table S7): 0.02 to 0.05 ng/g | Goldfish plasma concentration, this study (range) ([2]; Table S7): 0.01 to 0.06 ng/g | plasma concentration, CPM wild-01 [2, 12]: 0.015 ng/g | plasma concentration, CPM wild-02 [2, 13]: 0.036 ng/g | plasma concentration, CPM wild-03 [2, 14]: 0.058 ng/g

Oc1cc(Cl)ccc1Oc1ccc(Cl)cc1Cl [T riclosan, Triclosan]
Salmon (whole body) concentration [1, 6]: 26 ng/g

CC1=C\[C@@H](O)CC(=O)Cc2nc(co2)C(=O)N2CCC=C2C(=O)O[C@H](C(C)C)[C@H](C)/C=C/C(=O)NC\C=C\1 [Virg in iam ycin M1, Virginiamycin M1]
Sculpin (whole body) concentration [5, 6]: 8 to 34 ng/g | Salmon (whole body) concentration [1, 6]: 10 ng/g

Cc1nnc2n1-c1ccc(Cl)cc1C(c1ccccc1)=NC2 [Alpr azolam, Alprazolam]
Sculpin (whole body) concentration [5, 6]: 0.38 ng/g

CN(C)CCC=C1c2ccccc2CCc2ccccc21 [Amitriptyline]
concentration at 21 days (in vivo; in vivo, plasma concentration, CPM1 caged, CPM1, 07-2014, pooled plasma, wet weight): 0.029 ng/g | concentration at 21 days (in vivo; in vivo, plasma concentration, CPM2 caged, CPM2, 07-2014, pooled plasma, wet weight): 0.029 ng/g | concentration at 21 days (in vivo; in vivo, plasma concentration, CPM3 caged, CPM3, 07-2014, pooled plasma, wet weight): 0.031 ng/g | concentration at 21 days (in vivo; in vivo, plasma concentration, JH caged, Jordan Harbour reference site, 07-2014, pooled plasma, wet weight): < 0.06 ng/g | Salmon (whole body) concentration [1, 6]: 0.58 to 0.68 ng/g | Goldfish plasma concentration, this study (range) ([2]; Table S7): 0.03 to 0.09 ng/g | plasma concentration, CPM wild-01 [2, 12]: 0.029 ng/g | plasma concentration, CPM wild-02 [2, 13]: 0.082 ng/g | plasma concentration, CPM wild-03 [2, 14]: 0.091 ng/g

CNCCC(Oc1ccc(C(F)(F)F)cc1)c1ccccc1 (stereo not shown) [Fluoxetine]
Salmon (whole body) concentration [1, 6]: 4.9 ng/g

O=C(O)c1cn(C2CC2)c2cc(N3CCNCC3)c(F)cc2c1=O [Ciproﬂoxacin, Ciprofloxacin]
Sculpin (whole body) concentration [5, 6]: 17 ng/g

CNCCN1C(=O)[C@H](OC(C)=O)[C@H](c2ccc(OC)cc2)Sc2ccccc21 [Desm eth yld ilt ia zem, Desmethyldiltiazem]
Sculpin (whole body) concentration [5, 6]: 0.07 to 0.08 ng/g | Salmon (whole body) concentration [1, 6]: 0.06 to 1.5 ng/g

Cc1ccnc(NS(=O)(=O)c2ccc(N)cc2)n1 [Sulfam erazine, Sulfamerazine]
Salmon (whole body) concentration [1, 6]: 0.51 ng/g

CN1C(=O)CN=C(c2ccccc2)c2cc(Cl)ccc21 [Diazepam]
Sculpin (whole body) concentration [5, 6]: 0.25 ng/g | Salmon (whole body) concentration [1, 6]: 0.39 ng/g

Clc1ccc(COC(Cn2ccnc2)c2ccc(Cl)cc2Cl)c(Cl)c1 (stereo not shown) [Miconazole]
Salmon (whole body) concentration [1, 6]: 1.8 ng/g

CC(C)(c1ccc(O)cc1)c1ccc(O)cc1 [Bisphenol A]
Sculpin (whole body) concentration [5, 6]: 3.6 to 4.5 ng/g | Salmon (whole body) concentration [1, 6]: 3.3 to 41 ng/g
